Results taken from patent US10414775B2 (Merck Sharp & Dohme Corp., priority 2016, dated 2019).

Molecular target: T1, Human CYP8B1 (Homo sapiens, UniProt Q9UNU6)
T1 construct: tissue Xenotech; host or cells: human liver microsomes
T1 sequence (Q9UNU6 1-501): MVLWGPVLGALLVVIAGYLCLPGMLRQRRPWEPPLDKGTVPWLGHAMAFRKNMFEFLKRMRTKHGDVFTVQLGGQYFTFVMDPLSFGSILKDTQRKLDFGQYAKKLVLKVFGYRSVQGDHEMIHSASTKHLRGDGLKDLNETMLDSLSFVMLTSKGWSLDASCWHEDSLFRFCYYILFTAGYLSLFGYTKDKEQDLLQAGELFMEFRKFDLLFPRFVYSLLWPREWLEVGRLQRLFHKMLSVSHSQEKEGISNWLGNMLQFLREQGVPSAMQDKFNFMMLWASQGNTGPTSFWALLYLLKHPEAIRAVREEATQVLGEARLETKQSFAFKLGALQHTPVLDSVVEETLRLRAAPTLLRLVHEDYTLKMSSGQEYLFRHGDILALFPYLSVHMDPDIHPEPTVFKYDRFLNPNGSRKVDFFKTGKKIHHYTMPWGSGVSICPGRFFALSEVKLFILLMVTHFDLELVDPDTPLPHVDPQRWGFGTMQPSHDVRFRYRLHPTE
Assay: Human Cyp8B1 Liver Microsome Assay
Assay type: biochemical
Conditions: human liver microsomes; substrate 7α-hydroxy-4-cholesten-3-one, NADPH; 30 min pre-incubation, 45 min reaction; RapidFire MS readout
Method: Human Cyp8B1 Liver Microsome Assay To a 384 well polypropylene plate (Corning 3656), 250 nl of inhibitor in 100% DMSO (1.25% final DMSO concentration) was pre-plated using an Echo liquid handler (Labcyte Inc.). Human liver microsomes (Xenotech) were diluted in of 0.1 M phosphate buffer, pH 7.4, at a concentration of 65 μg/ml and 15 μL was added to the 384 well plate. The plates were incubated at ambient room temperature for 30 minutes. After pre-incubation with inhibitor, the reaction was initiated by adding 5 μl of substrate solution (4.0 μM 7α-hydroxy-4-cholesten-3-one(Toronto Research Chemicals), 2 mM of NADPH (Sigma), 0.1 M phosphate buffer (pH 7.4). The reaction was carried out for 45 minutes at ambient room temperature and was quenched by the addition of 50 μl of acetonitrile+0.1% vol/vol formic acid (FA)+300 nM 7α-hydroxy-4-cholesten-3-one-d7 (Toronto Research Chemicals). The plates were sealed and centrifuged at 3000 rpm for 5 minutes. Plates were loaded onto the Agilent RapidFire RF300 HTMS system, wherein samples were sipped for 600 ms, and the sip sensor detection signals the diversion of sample from the loop onto a C4 solid phase extraction (SPE) cartridge, where salts are washed off for 2500 ms with a mobile phase of water with 0.1% vol/vol FA at a flow rate of 1.5 ml/min. The column path is switched, and the sample is eluted off the cartridge and flowed into the mass spectrometer for 3000 ms with a mobile phase of acetonitrile and 0.1% vol/vol FA at a flow rate of 1.25 ml/min. The aspirator tip was washed separately with water and acetonitrile between sample aspirations (each for 600 ms) to minimize carryover contamination. Mass spectrometry was carried out using a Sciex API4000 triple quadrupole mass spectrometer (Applied Biosystems, Concord, ON, Canada) equipped with electrospray ionization (ESI) operated in the positive-ion mode. The product 7α, 12α-dihydroxy-4-cholesten-3-one and internal standard 7α-hydroxy-4-cholsten-3-one-d7 were detected using multiple reaction monitoring (MRM) with Q1/Q3 transitions at m/z 417.3 to 381.3 and m/z 408.3 to 390.3, respectively, with a dwell time of 100 ms and a collision energy of 24 V for each transition. The mass spectrometer used an ESI voltage of 5000 V and a source temperature of 650° C. Extracted ion chromatograms for each transition were integrated and processed using the RapidFire Integrator software. The data for each well were normalized by monitoring product conversion with the ratio of AUCproduct/(AUCinternal standard). The data was then fitted to a four parameter logistic fit using ActivityBase Software to calculate an IC50 of the inhibitor.

Point of comparison: `Cc1cnc2cc(C(F)(F)F)ccc2c1N1CC[C@H](C(=O)N2CCn3c(nnc3C(F)(F)F)C2)[C@H](C)C1` [Example 35, {(3S,4S)-3-methyl-1-[3-methyl-7-(trifluoromethyl)quinolin-4-yl]piperidin-4-yl}[3-(trifluoromethyl)-5,6-dihydro[1,2,4]triazolo[4,3-a]pyrazin-7(8H)-yl]methanone], IC50 0.17 nM. Against it:
- C[C@@H]1CC(c2c(Cl)cnc3cc(C(F)F)ccc23)CCN1C(=O)N1CCn2c(nnc2C(F)(F)F)C1 (stereo partly drawn) [Example 57, ((2R)-4-(3-chloro-7-(difluoromethyl)quinolin-4-yl)-2-methylpiperidin-1-yl)(3-(trifluoromethyl)-5,6-dihydro-[1,2,4]triazolo [4,3-a]pyrazin-7(8H)-yl)methanone] — 1.9-fold higher, 0.32 nM
- Cc1ccc2c(N3CC[C@H](C(=O)N4CCn5c(nnc5C(F)(F)F)C4)[C@H](C)C3)ccnc2n1 [Example 27, [(3S,4S)-3-methyl-1-(7-methyl-1,8-naphthyridin-4-yl)piperidin-4-yl][3-(trifluoromethyl)-5,6-dihydro[1,2,4]tria-zolo[4,3-a]pyrazin-7(8H)-yl]methanone] — 39000-fold higher, 6700 nM
- CC1CN(c2ccnc3ccc(Cl)cc23)CCC1C(=O)N1CCn2c(nnc2C(F)(F)F)C1 (stereo not shown) [Example 10, [1-(6-chloroquinolin-4-yl)-3-methylpiperidin-4-yl][3-(trifluoromethyl)-5,6-dihydro[1,2,4]triazolo[4,3-a]pyrazin-7(8H)-yl]methanone] — 50-fold higher, 8.5 nM
- CCNC(=O)c1ccc2c(N3CC[C@H](C(=O)N4CCn5c(nnc5C(F)(F)F)C4)[C@H](C)C3)c(Cl)cnc2c1 [Example 70, 3-chloro-N-ethyl-4-((3 S,4S)-3-methyl-4-(3-(trifluoromethyl)-5,6,7,8-tetrahydro-[1,2,4]triazolo[4,3-a]pyrazine-7-carbonyl)piperidin-1-yl)quinoline-7-carboxamide] — 4.1-fold higher, 0.7 nM
- C[C@@H]1CN(c2c(Cl)cnc3cc(-c4ncco4)ccc23)CC[C@@H]1C(=O)N1CCn2c(nnc2C2CC2)C1 [Example 78, ((3S,4S)-1-(3-chloro-7-(oxazol-2-yl)quinolin-4-yl)-3-methylpiperidin-4-yl) (3-cyclopropyl-5,6-dihydro-[1,2,4]triazolo[4,3-a]pyrazin-7(8H)-yl)methanone] — 2.9-fold higher, 0.5 nM
- C[C@@H]1CN(c2ccnc3c2CCN(C(=O)OC(C)(C)C)C3)CC[C@@H]1C(=O)N1CCn2c(nnc2C(F)(F)F)C1 [Example 59, tert-butyl 4-((3S,4S)-3-methyl-4-(3-(trifluoromethyl)-5,6,7,8-tetrahydro-[1,2,4]triazolo[4,3-a]pyrazine-7-carbonyl)piperidin-1-yl)-5,6-dihydro-1,7-naphthyridine-7(8H)-carboxylate] — 48-fold higher, 8.2 nM
- C[C@@H]1CN(c2c(Cl)cnc3cc(OCC4CC4)ccc23)CC[C@@H]1C(=O)N1CCn2c(nnc2C(F)(F)F)C1 [Example 51] — within 1.5-fold, 0.22 nM
- C[C@@H]1CN(c2c(C(F)(F)F)cnc3ccccc23)CC[C@@H]1C(=O)N1CCn2c(nnc2C(F)(F)F)C1 [Example 5, ((3S,4S)-3-methyl-1-(3-(trifluoromethyl)quinolin-4-yl)piperidin-4-yl)(3-(trifluoromethyl)-5,6-dihydro-[1,2,4]triazolo[4,3-a]pyrazin-7(8H)-yl)methanone] — 5.9-fold higher, 1 nM
- COc1ccc2nccc(N3CC[C@H](C(=O)N4CCn5c(nnc5C(F)(F)F)C4)[C@H](C)C3)c2n1 [Example 26, [(3S,4S)-1-(6-methoxy-1,5-naphthyridin-4-yl)-3-methylpiperidin-4-yl][3-(trifluoromethyl)-5,6-dihydro[1,2,4]tria-zolo[4,3-a]pyrazin-7(8H)-yl]methanone] — 110-fold higher, 18 nM
- Cc1cc(N2CC[C@H](C(=O)N3CCn4c(nnc4C(F)(F)F)C3)[C@H](C)C2)c2cc(Cl)ccc2n1 [Example 13, [(3S,4S)-1-(6-chloro-2-methylquinolin-4-yl)-3-methylpiperidin-4-yl][3-(trifluoromethyl)-5,6-dihydro[1,2,4]tria-zolo[4,3-a]pyrazin-7(8H)-yl]methanone] — 18000-fold higher, 3040 nM
- CC(=O)c1ccc2c(N3CC[C@H](C(=O)N4CCn5c(nnc5C(F)(F)F)C4)[C@H](C)C3)c(Cl)cnc2c1 [Example 43, 1-{3-chloro-4-[(3S,4S)-3-methyl-4-{[3-(trifluoromethyl)-5,6-dihydro[1,2,4]triazolo[4,3-a]pyrazin-7(8H)-yl]carbonyl}piperidin-1-yl]quinolin-7-yl}ethanone] — 1.6-fold higher, 0.28 nM
- C[C@@H]1CN(c2c(F)cnc3cc(Cl)ccc23)CC[C@@H]1C(=O)N1CCn2c(nnc2C(F)(F)F)C1 [Example 48, [(3S,4S)-1-(7-chloro-3-fluoroquinolin-4-yl)-3-methylpiperidin-4-yl][3-(trifluoromethyl)-5,6-dihydro[1,2,4]triazolo[4,3-a]pyrazin-7(8H)-yl]methanone] — 10-fold higher, 1.7 nM
- C[C@@H]1CN(c2c(Cl)cnc3c2CCN(C(=O)C2CC2)C3)CC[C@@H]1C(=O)N1CCn2c(nnc2C(F)(F)F)C1 [Example 65, (3-chloro-4-((3S,4S)-3-methyl-4-(3-(trifluoromethyl)-5,6,7,8-tetrahydro-[1,2,4]triazolo[4,3-a]pyrazine-7-carbonyl)piperidin-1-yl)-5,6-dihydro-1,7-naphthyridin-7(8H)-yl)(cyclopropyl)methanone] — 10-fold higher, 1.75 nM
- C[C@@H]1CN(c2c(Cl)cnc3nc(C(F)(F)F)ccc23)CC[C@@H]1C(=O)N1CCn2c(nnc2C(F)(F)F)C1 [Example 37, {(3S,4S)-1-[3-chloro-7-(trifluoromethyl)-1,8-naphthyridin-4-yl]-3-methylpiperidin-4-yl}[3-(trifluoromethyl)-5,6-dihydro[1,2,4]triazolo[4,3-a]pyrazin-7(8H)-yl]methanone] — 7.6-fold higher, 1.3 nM
- CCOC(=O)c1cnc2ccc(F)cc2c1N1CC[C@H](C(=O)N2CCn3c(nnc3C(F)(F)F)C2)[C@H](C)C1 [Example 1, ethyl 6-fluoro-4-[(3S,4S)-3-methyl-4-{[3-(trifluoromethyl)-5,6-dihydro[1,2,4]triazolo[4,3-a]pyrazin-7(8H)-yl]carbonyl}piperidin-1-yl]quinoline-3-carboxylate] — 22000-fold higher, 3680 nM
- C[C@@H]1CN(c2c(Cl)cnc3cc(S(C)(=O)=O)ccc23)CC[C@@H]1C(=O)N1CCn2c(nnc2C(F)(F)F)C1 [Example 72, ((3S,4S)-1-(3-chloro-7-(methylsulfonyl)quinolin-4-yl)-3-methylpiperidin-4-yl)(3-(trifluoromethyl)-5,6-dihydro-[1,2,4]triazolo[4,3-a]pyrazin-7(8H)-yl)methanone] — 7.1-fold higher, 1.2 nM
- C[C@@H]1CN(c2ccnc3cc(C(F)(F)F)ccc23)CC[C@@H]1C(=O)N1CCn2c(nnc2C(F)(F)F)C1 [Example 12, {(3S,4S)-3-methyl-1-[7-(trifluoromethyl)quinolin-4-yl]piperidin-4-yl}[3-(trifluoromethyl)-5,6-dihydro[1,2,4]triazolo[4,3-a]pyrazin-7(8H)-yl]methanone] — 31-fold higher, 5.2 nM
- C[C@@H]1CN(c2ccnc3c(Cl)c(Cl)ccc23)CC[C@@H]1C(=O)N1CCn2c(nnc2C(F)(F)F)C1 [Example 32, ((3S,4S)-1-(7,8-dichloroquinolin-4-yl)-3-methylpiperidin-4-yl)(3-(trifluoromethyl)-5,6-dihydro-[1,2,4]triazolo[4,3-a]pyrazin-7(8H)-yl)methanone] — 650-fold higher, 111 nM
